Experimental data as given in PMC4694998, “Suppression of β-catenin/TCF transcriptional activity and colon tumor cell growth by dual inhibition of PDE5 and 10” (Oncotarget, 2015).

System: HCT116 colon tumor cells
Assay: Growth assay (Cell Titer Glo), HCT116
Assay type: cell-based, human
Conditions: Homo sapiens, HCT-116; 72 hours of treatment; read-out: HCT116 growth IC50
Protocol: All cell lines were expanded upon delivery, and numerous aliquots of low passage cells were preserved in liquid N2. Cells were passaged no longer than 2 months. Tumor cell lines obtained from ATCC were characterized by STR profiling as performed by ATCC. The NCM460 line was characterized by INCELL as described previously (e.g. tumorigenicity testing). No additional re-authentication of the cell lines was performed except for experimental reasons (e.g. confirmation of cell doubling time, morphology, sensitivity to SS, PDE5/10 expression levels, etc). Cells were plated in 96-well microtiter plates at a density of 5,000 cells per well. For drug treatment, cells were treated with compound or vehicle, and incubated at 37°C for 72 hours. […] For siRNA assays, cells were transfected with siRNA under the same condition described above. The effect of treatment on cell growth was measured using the Cell Titer Glo Assay as specified by the manufacturer (Promega). The IC50 values were determined as described previously. All experiments were repeated a minimum of three times to determine the reproducibility of the results. All error bars represent standard error of the mean (SEM). Statistical analysis of differences between samples was performed using the Student’s t-test.

`COc1ccc2c(c1)C(CC(=O)NCc1ccco1)=C(C)/C2=C/c1cc(OC)c(OC)c(OC)c1` [ADT-094, (Z)-N-(furan-2-ylmethyl)-2-(5-methoxy-2-methyl-1-(3,4,5-trimethoxybenzylidene)-1H-inden-3-yl) acetamide] gave an IC50 of 0.1 µM.
